The text below walks through data of patent publication US20110136880A1, “Latrunculin-Based Macrolides and Their Uses” (priority 2009, published 2011).

For one test, the system named is PC-3. Description: MTT proliferation assay, PC-3. It counts as cell-based, human. Conditions: for IC50: Homo sapiens, PC-3, MTT, 72 h, read-out: IC50 (μM) PC-3. From the text: (§1) The antiproliferative and anti-invasive activities of compounds 1-14 were quantified using MTT and cell invasion assay kits, respectively. Latrunculin A (compound 1) was used as a positive control in all biological assays, because it is known to be an actin polymerization inhibitor, with cytotoxic, antiproliferative, and anti-invasive activities. The 3-[4,5-dimethylthiazol-2-yl]-2,5-diphenyl tetrazolium bromide (MTT) assay selectively detects living cells in a quantitative, colorimetric fashion, based on a living cell's ability to reduce MTT to an insoluble, purple formazan dye. The MTT assay is routinely used to assess cytotoxicity and proliferation inhibition activities. The antiproliferative activities of compounds 1-14 were measured against two human mammary gland adenocarcinoma cell lines, MCF7 and MDA-MB-231, and against human prostate cancer cells PC-3 at five different doses (0.1, 0.5, 1, 10, and 50 μM). While many of the semisynthetic latrunculins had similar activity levels, some had greater activity than compound 1. […] Although the MDA-MB-231 cells were more resistant than MCF7 against most latrunculin derivatives tested, compound 14 had potent activity against both cell lines.
(§2) MTT Proliferation Assay. The growth of MCF7, MDA-MB-231, and PC-3 cancer cell lines was measured using an MTT kit (TACS™, TREVIGEN®, Inc.). Exponentially growing cells were plated in a 96-well plate at a density of 8×10^3 cells per well, and allowed to attach for 24 h. Complete growth medium was then replaced with 100 μL of RPMI serum-free medium containing various concentrations (50, 10, 1, 0.5, 0.1 μM) of the particular test compound. Culture continued at 37° C. under 5% CO2. After 72 h of culture, the cells were treated with MTT solution (10 μL/well) at 37° C. for 4 h. The color reaction was stopped by adding solubilization/stop solution (100 μL/well). Incubation continued at 37° C. continued to completely dissolve the formazan dye product. Absorbance of the samples was determined at 570 nm with an ELISA plate reader (BioTek, VT). The number of cells per well was calculated against a standard curve that had been prepared by plating various concentrations of cells, as determined by hemocytometer, at the start of each experiment. IC50 for each compound was calculated using a nonlinear regression curve fit of log concentration versus the number of cells/well, using GraphPad Prism 5.0 (GraphPad Software, La Jolla, Calif.).
(In general: Formazan colour is commonly taken as a measure of viable cells.)

In another test the test system is MCF7. Description: MTT proliferation assay, MCF7. It counts as cell-based, human. Conditions: for IC50: Homo sapiens, MCF7, MTT, 72 h, mean ± SEM, read-out: IC50 (μM) MCF7.
Excerpt: as §1, §2

A further test relates to MDA-MB-231. The test is described as follows: MTT proliferation assay, MDA-MB-231. The conditions noted are these: for IC50: Homo sapiens, MDA-MB-231, MTT, 72 h, mean ± SEM, read-out: IC50 (μM) MDA-MB-231. In kind it is cell-based, human.
Excerpt: as §1, §2

For another test, the target named is T1, pyrene-conjugated actin (Oryctolagus cuniculus, UniProt P68135).
T1 construct: purchased Cytoskeleton, Denver, Colo
Description: Pyrene actin polymerization assay. The conditions noted are these: for inhibition at 0.1 µM: 100 nM, read-out: Actin polymerization inhibition (%) 100 nM; for inhibition at 0.1 µM / inhibition at 1 µM: compared to vehicle control (DMSO); for inhibition at 1 µM: read-out: Actin polymerization inhibition (%) 1 μM; for IC50: mean ± SEM, triplicate. It counts as biochemical. The procedure:
An actin polymerization kit was used to assess the direct actin-binding activity of each analogue at two concentrations: 100 nM and 1 μM. This kit is based on the enhanced fluorescence of pyrene-conjugated actin that occurs during polymerization. When pyrene-G-actin (monomer) forms pyrene-F-actin, fluorescence is enhanced. The enhanced fluorescence is used to follow polymerization over time. Table 2 lists activities as the percentage of actin polymerization inhibition, compared to the negative vehicle control (DMSO), along with calculated IC50.
Pyrene-Actin Polymerization Assays. Actin polymerization assays were performed in accordance with the manufacturer's instructions (Cytoskeleton, Denver, Colo.). Briefly, […] final concentration of monomeric actin (1:10 pyrene labeled) was incubated on ice for 10 min with one of various concentrations of one of the latrunculin derivatives. Samples were then equilibrated 10 min in an ELISA plate reader (BioTek, VT), after which polymerization was induced by adding KCl, MgCl2, and ATP. Compounds 1-14 were tested at 0.1, 0.5, 1.0, and 10 μM. The IC50 for each compound was calculated using GraphPad Prism 5.0.
Pyrene-actin polymerization assays. Actin polymerization inhibitory activity is assessed using the Cytoskeleton Actin Polymerization kit (Cytoskeleton, Denver, Colo.). Briefly, […] (final concentration) of monomeric actin (1:10 pyrene labeled) is incubated on ice for 10 min with one of various concentrations of the test latrunculin compound. Samples are equilibrated 10 min in an ELISA plate reader (BioTek, VT), after which polymerization is induced by adding KCl, MgCl2, and ATP. Compounds are tested at 0.1, 0.5, 1.0, and 10 μM. The IC50 for each compound is calculated using GraphPad Prism 5.0.

The test system of another test is MDA-MB-231 cells. The test is described as follows: Cultrex BME cell invasion assay. It counts as cell-based, human. The protocol: The anti-invasive activities of compounds 1-14 were measured using a 96 well basement membrane extract (BME) cell invasion assay kit against the highly metastatic MDA-MB-231 cells. This assay employs a simplified Boyden Chamber with a polyethylene terephthalate membrane (8 μm pore size). Cell invasion was quantified using calcein-acetomethylester (calcein-AM). Cells internalize calcein-AM; intracellular esterases then cleave the acetomethylester moiety to generate free calcein. Free calcein fluoresces brightly. This fluorescence may be used to quantify the number of cells that have invaded across the BME. To correlate the anti-invasive activities of the latrunculin A derivatives with their actin-disrupting activities, compounds 1-14 were each tested at non-toxic concentrations. […] Accordingly, all compounds were tested at 0.1, 0.5, and 1.0 μM. Compound 3 killed 17% of MDA-MB-231 cells at 1.0 μM, while the same dose of compound 3 inhibited 95% of MDA-MB-231 cells' invasion. […] The anti-invasive activities of compounds 1-14 are attributed primarily to the inhibition of actin polymerization, not to cell death per se.
Cultrex® Cell Invasion Assay. Anti-invasive activities were measured using Trevigen's Cultrex® Cell Invasion Assay as described in K. Tamilarasan et al., BMC Cell Biol. 2006, 7, 17-30; and P. Borghesani et al., Development. 2002, 6, 1435-1442. About 50 μL of basement membrane extract (BME) coat was added to each well. After incubation for 4 h at 37° C. under 5% CO2, 50,000 MDA-MB-231 cells in 50 μL of serum free RPMI medium were added to each well in the top chamber, along with the test compound at one of several concentrations (0.1, 0.5, 1 μM). About 150 μL of RPMI medium was added to the lower chamber in 10% FBS and penicillin/streptomycin, using fibronectin ([…]) and N-formyl-met-leu-phe (10 nM) as chemoattractants. Cells were allowed to migrate to the lower chamber at 37° C. under 5% CO2. After 24 h, the top and bottom chambers were aspirated and washed with the washing buffer that had been supplied with the kit. About 100 μL of Cell Dissociation Solution/Calcein-AM solution was added to the bottom chamber, and the cells were incubated at 37° C. under CO2 for 1 h. Briefly, the cells internalize calcein-AM, and then the intracellular esterases cleave the AM moiety to generate free calcein. […] The number of cells that had invaded through the BME coat was calculated using a standard curve.

In test [1] the test system is prostate cancer cells PC-3M-CT+. The conditions noted are these: 100 nM dose; without cytotoxicity; cited from earlier work.
A further test relates to β-catenin in C2C12 cells. The test is described as follows: Wnt/β-catenin signaling, β-catenin levels in C2C12 cells. In kind it is cell-based. From the text:
(§3) Effects on Wnt/β-catenin. […] These two compounds affected both alkaline phosphatase and β-catenin levels in C2C12 cells.

A further test concerns array of kinases. Description: Kinase profiling. It counts as binding. Conditions: any kinase tested. The protocol: Latrunculins B and H (compounds 20 and 14, respectively) were tested in a panel of assays including ApoE secretion, anti-angiogenesis, G2/M, Wnt pathway, insulin secretion, and an array of kinase profiling. The G2/M assays include HeLa cell proliferation, apoptosis, DNA content, and condensation, cyclin B, and phosphor-histone H3. […] Alkaline phosphatases may perhaps be a target of the anti-invasive latrunculin 11.

For test [2], the system named is alkaline phosphatase in HuADSC cells. Description: Alkaline phosphatase in HuADSC cells. It counts as cell-based.
The test system of test [3] is microvessel density marker CD31 in endothelial colony forming cells (ECFCs). Description: Angiogenesis inhibition assay (CD31 in ECFCs). It counts as cell-based. The procedure: Effects on Angiogenesis. Angiogenesis inhibition assays were conducted using endothelial colony forming cells (ECFCs). The microvessel density marker CD31 was quantified using confocal laser scanning microscopy and immunohistochemistry.

Test [4] deals with alkaline phosphatase in C2C12 cells. The test is described as follows: Alkaline phosphatase in C2C12 cells (Wnt pathway). In kind it is cell-based.
Excerpt: as §3

Another test deals with HeLa cells. Description: HeLa cell G2/M assays. In kind it is cell-based. Conditions: less active than compound 11. An excerpt:
This assay measures HeLa cell proliferation, apoptosis, DNA content and condensation, cyclin B, and phosphor-histone H3.

In test [5] the test system is breast, CNS, colon, lung, melanoma, ovarian, and renal cancer cells. The test is described as follows: Antiproliferative testing against 60 cell lines (NSC compounds). In kind it is cell-based.

As to `CCN1C(=O)SC[C@H]1[C@@]1(O)C[C@H]2C[C@@H](CC[C@H](C)/C=C\C=C\CC/C(C)=C\C(=O)O2)O1` [Compound 12, N-Ethyllatrunculin A], the IC50 in the test with PC-3 was 5.72 µM; in the test with MCF7 it was 0.95 µM; in the test on MDA-MB-231 it was 7.19 µM; against pyrene-conjugated actin, 283 ± 51 nM. Moreover, on pyrene-conjugated actin, the inhibition at 0.1 µM came to 32%. In addition, the inhibition at 1 µM on pyrene-conjugated actin was determined as 70%. In addition, the “anti-invasive activity compared with compound 1” value with MDA-MB-231 cells (1 and 0.5 μM doses) is recorded as “equipotent to compound 1”.

As for “latrunculin A 17-O-phenyl carbamate [Compound 18]”, the “migration of PC-3M-CT+ cells” value in test [1] was “inhibits the migration”.

As to `C/C1=C/C(=O)O[C@@H]2C[C@@H](CC[C@H](C)/C=C\CC1)O[C@@](O)([C@@H]1CSC(=O)N1)C2` [Compound 20, latrunculin B], the Wnt/β-catenin signaling entry in the test on β-catenin in C2C12 cells is given as “strongly inhibited”. In addition, the affinity toward kinases result in the test on array of kinases is given as “Neither compound 20 nor compound 14 showed affinity toward any kinase tested”. Moreover, the EC50 was 141 nM in test [2] and 91 nM in test [4]. The “inhibition of CD31 in ECFCs” value in test [3] (2 μM) and in test [3] (10 μM) was 100% throughout. Further, in test [3] (read-out: IC50 CD31 in ECFCs), the IC50 amounted to 43 nM. Also, the “activity in G2_M assays compared with nocodazole” value with HeLa cells was “greater activity than did nocodazole”.

As for `C/C1=C/C(=O)O[C@@H]2C[C@@H](CC[C@H](C)/C=C\C=C\CC1)O[C@@](OCCc1ccccc1)([C@@H]1CSC(=O)N1)C2` [Compound 3, 17-O-Phenylethyllatrunculin A], the IC50 worked out at 1.22 µM in the test on PC-3, 0.1 ± 0.07 µM in the test on MCF7, 2.71 ± 0.52 µM with MDA-MB-231 and 184 ± 48 nM against pyrene-conjugated actin. Besides, the “fold increase in activity against PC-3 versus compound 1” value in the test with PC-3 (relative to compound 1) came to 3.2 fold. The “fold increase in activity against MCF7 versus compound 1” value in the test on MCF7 (relative to compound 1) was 4.8 fold. In the test with MDA-MB-231 (1.0 μM), the MDA-MB-231 cells killed is 17%. Moreover, the inhibition at 0.1 µM at pyrene-conjugated actin worked out at 31%. Also, the inhibition at 1 µM amounted to 94% on pyrene-conjugated actin and 95% in the test with MDA-MB-231 cells (Homo sapiens, MDA-MB-231, 1.0 μM). In addition, the “fold more active against cell invasion than latrunculin A (compound 1)” value with MDA-MB-231 cells (0.5 μM) turned out to be 3.3 fold. In test [5] (dose of 10 μM), the “number of the 60 cell lines tested with antiproliferative activity” value is 18. The same compound returned a log10GI50 in [5] (five-points dose-response, range over active cell lines) of −7.02 to −7.90.

By IC50 is commonly meant the concentration that inhibits the measured activity by half. The inhibition is the drop in the measured response relative to a control, in per cent. One may read the EC50 as the concentration at which the effect is half-maximal.
